PubChem BioAssay (NCI)
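Grown in 96-well plates, cells were treated for 48 hours with each compound at five concentrations. Insufficient inhibition: endpoint recorded as highest concentration tested. TGI marks complete inhibition of growth.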

What was measured:
Assay in all cases: NCI anticancer screen, dose series, 48 h
KM12 colon = system: KM12 colon
SK-MEL-5 melanoma = system: SK-MEL-5 melanoma
SF-268 CNS = system: SF-268 CNS
786-0 renal = system: 786-0 renal
A498 renal = system: A498 renal
HL-60(TB) leukemia = system: HL-60(TB) leukemia
UACC-257 melanoma = system: UACC-257 melanoma
SW-620 colon = system: SW-620 colon
COLO 205 colon = system: COLO 205 colon
A549 NSCLC = system: A549 NSCLC

SMILES | TGI (KM12 colon) | TGI (SK-MEL-5 melanoma) | TGI (SF-268 CNS) | TGI (786-0 renal) | TGI (A498 renal) | TGI (HL-60(TB) leukemia) | TGI (UACC-257 melanoma) | TGI (SW-620 colon) | TGI (COLO 205 colon) | TGI (A549 NSCLC)
Cc1cc(Nc2ccc(N=Nc3ccc(O)c4ncccc34)cc2)nc(C)n1 | 33.3 µM | 26.3 µM | > 51.9 µM | 54.2 µM | 46.1 µM | 16.5 µM | 43.8 µM | > 66.5 µM | 40.4 µM | 38.3 µM
CCOC(=O)C1=C(C)C(C(=O)OC)/C(=C/c2cccc3cccnc23)C1=O (stereo not given) | > 10 µM | > 10 µM | > 10 µM | > 10 µM | > 10 µM | > 10 µM | > 10 µM | > 10 µM | > 10 µM | > 10 µM
CC(C)[C@H]1NC(=O)[C@H]2N=C(O[C@@H]2C)[C@@H]2CCCN2C(=O)[C@H](Cc2ccccc2)NC(=O)[C@@H]2CSC(=N2)[C@@H](Cc2ccccc2)NC(=O)[C@@H]2CSC1=N2 | > 100 µM | > 100 µM | > 100 µM | > 100 µM | > 100 µM | > 100 µM | > 100 µM | > 100 µM | > 100 µM | > 100 µM
CC1CC[C@@]2(OC1)O[C@H]1C[C@H]3[C@@H]4CC[C@H]5C[C@@H](OC6OC(CO)C(OC7OC(CO)C(OC8OC(CO)C(O)C(OC9OC(C)C(OC%10OC(C)C(O)C(O)C%10O)C(O)C9O)C8OC8OCC(O)C(O)C8O)C(O)C7O)C(O)C6O)CC[C@]5(C)[C@H]4CC(=O)[C@]3(C)[C@H]1[C@@H]2C (stereo not given in full) | 36.1 µM | 30.4 µM | 56.9 µM | 54.9 µM | 32.1 µM | 27.6 µM | 32.3 µM | 42 µM | 30.1 µM | 51.3 µM
OCC(Cn1cncn1)(c1ccc(F)cc1F)n1cncn1 (stereo not given) | > 100 µM | > 100 µM | > 100 µM | > 100 µM | > 100 µM | > 100 µM | > 100 µM | > 100 µM | > 100 µM | > 100 µM
Cc1ccc(NC(=S)Nc2c(C)n(C)n(-c3ccccc3)c2=O)cc1 | > 100 µM | > 100 µM | > 100 µM | > 100 µM | > 100 µM | > 100 µM | > 100 µM | > 100 µM | > 100 µM | > 100 µM
COc1cccc2c1C1(O)C2CCCC12OCCCO2 (stereo not given) | > 100 µM | > 100 µM | > 100 µM | > 100 µM | > 100 µM | > 100 µM | > 100 µM | > 100 µM | > 100 µM | > 100 µM
[N-]=[N+]=NC1CC(n2cc(COCC(F)(F)F)c(=O)[nH]c2=O)OC1CO (stereo not given) | > 100 µM | > 100 µM | > 100 µM | > 100 µM | > 100 µM | > 100 µM | > 100 µM | > 100 µM | > 100 µM | > 100 µM
Nc1ccc(-c2nc3cc(F)ccc3s2)cc1I | > 100 µM | > 70.4 µM | 35.2 µM | 32 µM | 31.2 µM | > 100 µM | > 100 µM | > 100 µM | > 100 µM | > 100 µM
OCC(O)C1OC2CC1Nc1ccccc1N2 (stereo not given) | > 100 µM | > 100 µM | > 100 µM | > 100 µM | > 100 µM | > 100 µM | > 100 µM | > 100 µM | > 100 µM | > 100 µM
N#Cc1c(N2CCCC2)ncn(Cc2ccccc2)c1=S | > 100 µM | > 100 µM | > 100 µM | > 100 µM | > 100 µM | > 100 µM | > 100 µM | > 100 µM | > 100 µM | > 100 µM
COC(=O)c1ccccc1C#CCCCOS(C)(=O)=O | > 10 µM | > 10 µM | > 10 µM | > 10 µM | > 10 µM | > 10 µM | > 10 µM | > 10 µM | > 10 µM | > 10 µM
CC(C)(C)OC(=O)NC(Cc1ccc(O)cn1)C(N)=O (stereo not given) | > 100 µM | > 100 µM | > 100 µM | > 100 µM | > 100 µM | > 100 µM | > 100 µM | > 100 µM | > 100 µM | > 100 µM
C=CC(C)(C)N[C@@H](C(=O)N1CCC[C@H]1c1nc(-c2nc(C(=O)OCC=C(C)C)c(C)o2)c(C)o1)C(C)C | 60.3 µM | 52 µM | 46.9 µM | 44.5 µM | 39.4 µM | 93.9 µM | 38.4 µM | 53.8 µM | 52.1 µM | > 100 µM
O=C(NC1(C(=O)NNc2nnc(-c3ccccc3)c(-c3ccccc3)n2)C(c2ccccc2)C(c2ccccc2)=NN1c1ccccc1)c1ccccc1 (stereo not given) | > 100 µM | > 100 µM | > 100 µM | > 100 µM | > 100 µM | > 100 µM | > 100 µM | > 100 µM | > 100 µM | > 100 µM
COc1ccc(/C=C2\CC3C4CC=C5C[C@@H](O)CC[C@]5(C)C4CC[C@]3(C)\C2=N\O)cc1OC (stereo not given in full) | > 100 µM | 45.1 µM | > 100 µM | > 100 µM | 86.2 µM | > 100 µM | > 100 µM | > 100 µM | 67.1 µM | > 100 µM
